Results as given in patent publication US4029547A (priority 1974, dated 1977).
pIC50: −log10 of the molar value. Several values for one entry are separate records, joined by “and”; a condition that tells them apart may be missing. Equal entries are not always repeated. Entries after “also recorded” stand apart in the source; their conditions may differ. Where two headings read alike, the source gives them in different places. Each block holds one molecule with its values, some of them ahead of it.

Assays:
aminopeptidase B = molecular target: T1, aminopeptidase B (Rattus norvegicus, UniProt O09175); assay: Inhibition of aminopeptidase B (arginine β-naphthylamide hydrolysis); type: biochemical; details: for 50% inhibition dose (ID50) of aminopeptidase B: amount added to the test solution
T1 construct: aminopeptidase B of rat liver; from tissue; host or cells: rat liver, enzyme prepared by Sephadex 100 chromatography
T1 sequence (O09175 1-650): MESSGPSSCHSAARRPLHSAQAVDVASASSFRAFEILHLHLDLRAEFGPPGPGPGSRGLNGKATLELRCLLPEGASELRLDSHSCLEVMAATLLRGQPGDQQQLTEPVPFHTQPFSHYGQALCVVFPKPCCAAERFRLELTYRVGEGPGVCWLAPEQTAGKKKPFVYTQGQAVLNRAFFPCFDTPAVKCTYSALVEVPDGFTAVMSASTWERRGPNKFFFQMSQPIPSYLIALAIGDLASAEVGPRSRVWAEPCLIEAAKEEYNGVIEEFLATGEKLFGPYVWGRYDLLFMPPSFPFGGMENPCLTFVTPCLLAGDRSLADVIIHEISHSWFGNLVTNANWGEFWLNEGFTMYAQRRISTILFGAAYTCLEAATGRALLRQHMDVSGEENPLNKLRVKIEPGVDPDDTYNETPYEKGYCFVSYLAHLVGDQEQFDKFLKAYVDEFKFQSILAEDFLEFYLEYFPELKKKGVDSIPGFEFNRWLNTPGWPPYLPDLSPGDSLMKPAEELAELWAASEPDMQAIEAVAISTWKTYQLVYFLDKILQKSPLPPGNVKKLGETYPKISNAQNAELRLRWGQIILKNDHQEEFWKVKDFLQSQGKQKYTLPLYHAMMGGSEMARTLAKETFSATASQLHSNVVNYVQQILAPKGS
Description: To the mixture of 0.3 ml of 1 mM arginine β-naphthylamide and 1.0 ml of 0.1 M Tris hydrochloride buffer (pH 7.0), 0.7 ml of distilled water with or without a test material is added and warmed at 37° C.) for 3 minutes. The reaction is started by addition of 0.2 ml of aminopeptidase B solution which is prepared by Sephadex 100 chromatography as described by Hopusu et al. After 30 minutes at 37° C., 0.6 ml of 1.0 M acetate buffer (pH 4.2) containing diazonium salt of o-aminoazotoluene at 1.0 mg/ml and Tween 20 at 10% is added. […] The inhibition percent is calculated as follows: (b-a)/b × 100.

leucine aminopeptidase = molecular target: T2, leucine aminopeptidase (Sus scrofa, UniProt P28839); assay: Inhibition of leucine aminopeptidase (L-leucine naphthylamide hydrolysis); type: biochemical, swine; details: substrate L-leucine-β-naphthylamide
T2 construct: leucine aminopeptidase of swine kidney; from tissue; host or cells: swine kidney
T2 sequence (P28839 33-519 limits assumed): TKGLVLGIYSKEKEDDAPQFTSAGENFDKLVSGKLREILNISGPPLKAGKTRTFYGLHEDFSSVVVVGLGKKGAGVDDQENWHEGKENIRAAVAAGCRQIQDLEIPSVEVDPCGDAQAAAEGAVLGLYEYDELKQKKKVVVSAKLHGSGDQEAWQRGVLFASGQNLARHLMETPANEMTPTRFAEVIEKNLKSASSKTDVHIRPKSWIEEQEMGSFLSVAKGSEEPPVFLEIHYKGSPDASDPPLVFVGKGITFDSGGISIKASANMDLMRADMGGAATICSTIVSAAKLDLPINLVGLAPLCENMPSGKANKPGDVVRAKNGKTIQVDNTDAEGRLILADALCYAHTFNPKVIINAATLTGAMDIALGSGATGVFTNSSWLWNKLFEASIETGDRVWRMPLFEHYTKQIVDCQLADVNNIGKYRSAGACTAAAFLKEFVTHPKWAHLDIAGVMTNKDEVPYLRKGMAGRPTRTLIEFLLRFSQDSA
Description: The activity was determined by the following method: to 0.25 ml. of 2 mM L-leucine-3-naphthylamide (Tokyo Chem. Indust. Co., Ltd., Japan) was added 0.5 ml. of 0.1 M Tris-HCl buffer at pH 7.0 and 0.2 ml. of distilled water with or without an inhibitor in a series of test tubes in a 37° C. bath. After 3 minutes, 0.05 ml. of enzyme solution was added and mixed well.

[1] = system: aminopeptidase A of human serum; assay: Inhibition of aminopeptidase A; type: biochemical
trypsin = assay: Inhibition of trypsin; type: biochemical
chymotrypsin = assay: Inhibition of chymotrypsin; type: biochemical
elastase = assay: Inhibition of elastase; type: biochemical
papain = molecular target: T3, papain (Carica papaya, UniProt P00784); assay: Inhibition of papain; type: biochemical
T3 sequence (P00784 134-345): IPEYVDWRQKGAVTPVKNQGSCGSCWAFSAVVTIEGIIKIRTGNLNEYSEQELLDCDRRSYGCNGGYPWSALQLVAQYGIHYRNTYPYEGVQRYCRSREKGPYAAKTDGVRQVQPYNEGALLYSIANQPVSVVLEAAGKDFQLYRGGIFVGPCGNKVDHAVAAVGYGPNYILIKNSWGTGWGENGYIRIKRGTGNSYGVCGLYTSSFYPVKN

pepsin = assay: Inhibition of pepsin; type: biochemical
thermolysin = molecular target: T4, thermolysin (Bacillus thermoproteolyticus, UniProt P00800); assay: Inhibition of thermolysin; type: biochemical
T4 sequence (P00800 233-548): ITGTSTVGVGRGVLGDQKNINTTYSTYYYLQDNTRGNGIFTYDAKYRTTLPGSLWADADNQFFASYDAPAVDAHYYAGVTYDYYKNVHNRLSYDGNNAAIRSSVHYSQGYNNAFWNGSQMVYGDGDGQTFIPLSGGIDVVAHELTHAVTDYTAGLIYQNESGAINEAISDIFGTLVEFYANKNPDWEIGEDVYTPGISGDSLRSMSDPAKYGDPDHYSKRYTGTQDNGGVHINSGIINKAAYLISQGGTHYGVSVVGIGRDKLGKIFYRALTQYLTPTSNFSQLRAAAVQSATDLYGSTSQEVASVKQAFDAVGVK

bacteria = assay: Antibacterial activity; type: cell-based
fungi = assay: Antifungal activity; type: cell-based; details: at 100 μg/ml
[2] = Toxicity after intraperitoneal injection; type: in vivo, mouse
[3] = system: Yoshida rat sarcoma cells; assay: Increase of bleomycin activity in tissue culture; type: cell-based; details: bestatin 6.25 μg/ml in tissue culture medium
[4] = system: methylcholanthrene-induced squamous cell carcinoma; assay: Increase of bleomycin effect on carcinoma in vivo; set-up: species or system rat; details: simultaneous subcutaneous daily injection, 5 mg/kg bestatin with 5 mg/kg bleomycin, rats
Stability to pH and heat = type: physicochemical; details: culture filtrate containing bestatin, pH 2.0 or pH 9.0, 60° C., 30 minutes
Solubility in solvents = type: physicochemical
bleomycin hydrolase = assay: Inhibition of bleomycin hydrolase; type: biochemical
[5] = system: mammalian cells including cancer cells; assay: Inhibition of growth of mammalian cells; type: cell-based

SMILES: CC(C)C[C@H](NC(=O)[C@@H](O)[C@H](N)Cc1ccccc1)C(=O)O [bestatin, [(2S,3R)-3-amino-2-hydroxy-4-phenylbutanoyl]-L-leucine]
- pIC50 (aminopeptidase B; aminopeptidase B of rat liver): 6.75
- 50% inhibition dose (ID50) of aminopeptidase B (aminopeptidase B): 0.1 µg and 0.10 µg
- mode of inhibition (aminopeptidase B; substrate L-arginine-β-naphthylamide): competitive with the substrate
- mode of inhibition (leucine aminopeptidase): competitive with the substrate
- inhibition of aminopeptidase A [1]: did not show any inhibition
- inhibition of aminopeptidase A ([1]; at 100 μg/ml, aminopeptidase A of human serum): 26.4%
- inhibition of trypsin (trypsin): did not show any inhibition
- inhibition of chymotrypsin (chymotrypsin): did not show any inhibition
- inhibition of elastase (elastase): did not show any inhibition
- inhibition of papain (papain): did not show any inhibition
- inhibition of pepsin (pepsin): did not show any inhibition
- inhibition of thermolysin (thermolysin): did not show any inhibition
- antibacterial activity (bacteria; at 100 μg/ml): no antibacterial
- antibacterial activity (bacteria; no concentration given): substantially no antibacterial activity
- antifungal activity (fungi): no antifungal
- toxicity ([2]; intraperitoneal injection of 295 mg/kg, mouse): no toxicity
- death ([2]; intraperitoneal injection of 300 mg/kg, mice): no death
- increase of bleomycin activity in inhibiting Yoshida rat sarcoma cells [3]: 4- 8 times
- increase of bleomycin effect on squamous cell carcinoma [4]: 4 times
- stability (activity after treatment) (Stability to pH and heat): No decrease of the activity
- solubility (Solubility in solvents; ethyl acetate, butyl acetate, ethyl ether, hexane, petroleum ether, benzene, chloroform): practically insoluble; also recorded: hardly soluble
- solubility (Solubility in solvents; propanol and butanol): slightly soluble; also recorded: less soluble
- solubility (Solubility in solvents; water, acetic acid, pyridine, dimethylsulfoxide, methanol, ethanol): soluble
- inhibition of bleomycin hydrolase (bleomycin hydrolase): strong inhibition
- inhibition of growth of mammalian cells [5]: weak inhibition

- 50% inhibition dose (ID50) of aminopeptidase B (aminopeptidase B): 8 µg
SMILES: COC(=O)[C@H](CC(C)C)NC(=O)[C@@H](O)[C@@H](Cc1ccccc1)NC(C)=O [N-acetyl-bestatin methyl ester]

- 50% inhibition dose (ID50) of aminopeptidase B (aminopeptidase B): 8.4 µg
SMILES: COC(=O)[C@H](CC(C)C)NC(=O)[C@@H](O)[C@H](N)Cc1ccccc1 [methyl ester of bestatin]
